In brackets after ≈: the same amount, converted by molar mass. Like-named read-outs stand apart in the source and are kept apart here. Non-standard residues stand in square brackets, D forms with d. Residues, ends and D or L forms follow the SMILES beside them. Orn = NCCC[C@H](N)C(=O)O
Tests used:
[1] = tested on: human red blood cells; conditions: red cells of human, 6 h
[2] = 25% (v/v) human serum in 0.1 M TRIS buffer pH 7.4, peptide 200 μM, 37 °C, 0/24/48/72 h, LC-MS UV trace vs 4-hydroxybenzoic acid internal standard, n = 3
Protocol: Human serum was diluted in 0.1 M filtered TRIS buffer pH 7.4 (50%, 1:1, v/v). Selected peptides were diluted in 0.1 M filtered TRIS buffer pH 7.4 to a concentration of 400 μM and 0.1 mg/mL 4- hydroxybenzoic acid was added as internal standard. Aliquots of peptide solution (300 μL) were added to aliquots of serum (300 μL) in sterile 1.5 mL Eppendorf tubes, to reach a peptide concentration of 200 μM and 25% (v/v) human serum during the assay. Samples, in triplicate, were incubated at 37 °C under gentle stirri ng (200 rpm). At different time points (0, 24, 48 and 72 hours), 100 μL of each sample was collected and quenched by precipitating serum proteins through the addition of (0.1 M) ZnSO4·7 H2O / ACN (1:1) (0.1 M, 100 μL) and cooling in ice bath for 10 minutes. Protein precipitates were pelleted under centrifugation (5 min at 14’000 rpm) and the supernatants were analysed by LC-MS. Peaks corresponding to the internal standard and the undegraded peptides were integrated from the area under the curves (AUC) of UV traces, with the ratio peptide/standard at t = 0 h as 100%.
Figure S7. Serum stability assay of the respective compound (200 μM), incubated with human serum (25% in TRIS buffer, 0.1 M, pH 7.4) at 37 °C. Aliquots were taken at different time (0 / 24 / 48 and 72 h). Undegraded peptide values determined by RP -HPLC analysis usi ng hydroxybenzoic acid as internal standard. Measured in triplicates and the data represent mean ± SD, n […]
(1 picture or pasted object on this page, not shown here)

[3] = tested on: P. aeruginosa PA14; experiment: microbe, parasite or virus in culture; conditions: for MIC P. aeruginosa PA14: supplement CSV
Protocol: (§1) Minimum inhibitory concentration assay
(§2) Antimicrobial activity was assayed against P. aeruginosa PAO1, K. pneumoniae NCTC418, E. coli W3110, A. baumannii ATCC 19606, methicillin-resistant S. aureus COL (MRSA), and for selected peptides on P. aeruginosa PA14 and the polymyxin-B-resistant derivative PA14 2P4, as well as the clinical isolates ZEM-1A and ZEM9A, K. pneumoniae OXA-48, S. aureus Newman, Enterobacter cloacae and Burkholderia cenocepacia. The minimal inhibitory concentration (MIC) was determined by using broth microdilution method. A colo ny of bacteria was picked and grown in Luria-Bertani (LB) medium overnight at 37°C. For E. coli BW25113 sbmA::kan the medium was supplemented with 25 mg/L of kanamycin. The next day, the culture was then regrown in LB medium to log phase (OD600 = 0.6 to 0.8), which lasted approximately 4 h, and diluted to an OD600 of 0.022 in the desired medium. Stock solutions of 1 mg/mL of the samples were prepared in sterilized milliQ water and diluted to the beginning concentration of 64 μg/mL in 300 μL Mueller Hinton (MH)-medium. The diluted samples were added to first well of 96-well microtiter plate (TPP, untreated, Faust Laborbedarf, AG, Schaffhausen) and diluted serially by ½. Finally, 4 μL of the bacterial suspension was inoculated into the sample solutions (150 μL/well) with a final inoculation of about 5∙10^5 CFU/mL. The plates were then incubated at 37°C for 15-18h. For each assay, sterility (broth only) and growth control (broth with bacterial inoculum, without antibiotics) were checked with two columns in the plate. The next day, 15 μL of 3-(4,5-dimethylthiazol-2-yl)-2,5-diphenyltetrazolium bromide (MTT) was added to each well of the plate, such a way that MIC was defined as the lowest concentration of the peptide that inhibited visible growth of the tested

[4] = tested on: P. aeruginosa ZEM-1A; experiment: microbe, parasite or virus in culture; conditions: for MIC P. aeruginosa ZEM-1A: supplement CSV
Protocol: as §1, §2

[5] = tested on: K. pneumoniae OXA-48; experiment: microbe, parasite or virus in culture; conditions: for MIC K. pneumoniae OXA-48: supplement CSV
Protocol: as §1, §2

[6] = tested on: P. aeruginosa PA14 2P4 (pmrB); experiment: microbe, parasite or virus in culture; conditions: for MIC P. aeruginosa PA14 2P4: supplement CSV
Protocol: as §1, §2

[7] = tested on: E. cloacae; experiment: microbe, parasite or virus in culture; conditions: for MIC E. cloacae: supplement CSV
Protocol: as §1, §2

[8] = tested on: P. aeruginosa ZEM9A; experiment: microbe, parasite or virus in culture; conditions: for MIC P. aeruginosa ZEM9A: supplement CSV
Protocol: as §1, §2

[9] = tested on: P. aeruginosa PA14 4.13 (phoQ); conditions: for MIC P. aeruginosa PA14 4.13: supplement CSV
[10] = tested on: A. baumannii ATCC19606; experiment: microbe, parasite or virus in culture
Summary of the method: (§3)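 Read-out was visible growth after MTT addition, the MIC being the lowest inhibitory peptide concentration. Bacteria grown to log phase in LB were exposed in MH medium to peptide from 64 μg/mL in twofold dilutions for 15-18h at 37°C.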

[11] = tested on: K. pneumoniae NCTC 418; experiment: microbe, parasite or virus in culture; conditions: supplement CSV
Summary of the method: as §3

[12] = tested on: E. coli W3110; experiment: microbe, parasite or virus in culture; conditions: for MIC E. coli W3110: supplement CSV
Summary of the method: as §3

[13] = tested on: P. aeruginosa PAO1; experiment: microbe, parasite or virus in culture; conditions: supplement CSV
Summary of the method: as §3

[14] = tested on: S. aureus COL (MRSA); experiment: microbe, parasite or virus in culture; conditions: for MIC S. aureus COL (MRSA): supplement CSV
Summary of the method: as §3

[15] = tested on: P. aeruginosa PA14 4.18 (pmrB); conditions: for MIC P. aeruginosa PA14 4.18: supplement CSV
[16] = molecular target: chaperone DnaK (His-tagged) (UniProt P0A6Y8); experiment: MST; 16 two-fold dilutions of L-Onc from a maximum of 100 μM, mixed 1:1 with 40 nM His-Tag-labeled DnaK; MST buffer (50 mM TRIS, 150 mM NaCl, 10 mM MgCl2, Tween 20 0.05%); Monolith NT.115; apparent
Sequence of chaperone DnaK (His-tagged) (P0A6Y8 whole entry): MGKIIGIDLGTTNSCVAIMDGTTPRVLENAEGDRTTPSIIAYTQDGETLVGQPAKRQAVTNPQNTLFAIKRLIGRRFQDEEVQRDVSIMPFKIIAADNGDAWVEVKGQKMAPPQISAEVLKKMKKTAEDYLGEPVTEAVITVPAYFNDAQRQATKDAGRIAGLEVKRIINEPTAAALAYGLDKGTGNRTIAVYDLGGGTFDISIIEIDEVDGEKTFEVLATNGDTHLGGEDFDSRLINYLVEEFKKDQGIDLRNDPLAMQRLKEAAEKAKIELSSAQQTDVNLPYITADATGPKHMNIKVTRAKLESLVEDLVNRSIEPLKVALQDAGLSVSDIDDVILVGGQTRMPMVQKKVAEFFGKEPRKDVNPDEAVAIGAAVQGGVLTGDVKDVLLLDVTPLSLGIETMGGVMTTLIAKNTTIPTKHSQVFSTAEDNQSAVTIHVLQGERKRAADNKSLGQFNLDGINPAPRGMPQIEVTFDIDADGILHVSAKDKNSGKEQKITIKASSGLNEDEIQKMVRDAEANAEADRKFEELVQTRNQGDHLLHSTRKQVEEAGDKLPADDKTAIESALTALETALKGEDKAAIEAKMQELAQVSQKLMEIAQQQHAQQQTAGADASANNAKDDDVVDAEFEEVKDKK

[17] = polymyxin B resistant strain, 12.5% MHB pH 7.4, 16–20 h at 37 °C
[18] = polymyxin B resistant strain, full MHB pH 7.4, 16–20 h at 37 °C

CC[C@H](C)[C@H](NC(=O)[C@H](CCCN)NC(=O)[C@H](CCCNC(=N)N)NC(=O)[C@@H]1CCCN1C(=O)[C@@H]1CCCN1C(=O)[C@H](CCCNC(=N)N)NC(=O)[C@@H]1CCCN1C(=O)[C@H](CCCNC(=N)N)NC(=O)[C@@H]1CCCN1C(=O)[C@H](CC(C)C)NC(=O)[C@H](Cc1ccc(O)cc1)NC(=O)[C@@H]1CCCN1C(=O)[C@@H]1CCCN1C(=O)[C@H](CCCCN)NC(=O)[C@H](CC(=O)O)NC(=O)[C@@H](N)C(C)C)C(=O)N[C@@H](Cc1ccc(O)cc1)C(=O)N[C@@H](CC(N)=O)C(=O)N[C@@H](CCCN)C(N)=O [Onc72] (H-VDKPPYLPRPRPPR[Orn]IYN[Orn]-NH2)
MHC human red blood cells [1]: >1000 µg/mL | Serum stability (undegraded peptide) [2]: essentially stable to degradation over 24 h

CC(C)C[C@H](NC(=O)[C@H](CC(C)C)NC(=O)[C@H](CC(C)C)NC(=O)[C@@H](CCCCN)NC(=O)[C@H](CC(C)C)NC(=O)[C@H](CC(C)C)NC(=O)[C@@H](CCCCN)NC(=O)[C@H](CC(C)C)NC(=O)[C@H](CC(C)C)NC(=O)[C@@H](CCCCN)NC(=O)[C@H](N)CCCCN)C(N)=O [ln69, reference compound] (H-[dK][dK]LL[dK]LL[dK]LLL-NH2)
MHC human red blood cells [1]: 1000 µg/mL | MIC P. aeruginosa PA14, 12.5% MHB ([3]; 12.5% MHB pH 7.4, 16–20 h at 37 °C, two different duplicate MIC determinations): 2/2 μg/mL | MIC P. aeruginosa PA14, full MHB ([3]; full MHB pH 7.4, 16–20 h at 37 °C, two different duplicate MIC determinations): 2/2 μg/mL | MIC P. aeruginosa PA14 ([3]; 12.5% MH pH 7.4): 2 mg/L (≈ 1.51 µM) | MIC P. aeruginosa PA14 ([3]; full MH pH 7.4): 2 mg/L (≈ 1.51 µM) | MIC P. aeruginosa ZEM-1A, 12.5% MHB ([4]; clinical isolate, 12.5% MHB pH 7.4, 16–20 h at 37 °C, cells marked c: single measurement (in duplicates)): 4 mg/L (≈ 3.03 µM) | MIC P. aeruginosa ZEM-1A, full MHB ([4]; clinical isolate, full MHB pH 7.4, 16–20 h at 37 °C, cells marked c: single measurement (in duplicates)): 1 mg/L (≈ 0.757 µM) | MIC P. aeruginosa ZEM-1A ([4]; 12.5% MH pH 7.4): 4 mg/L (≈ 3.03 µM) | MIC P. aeruginosa ZEM-1A ([4]; full MH pH 7.4): 1 mg/L (≈ 0.757 µM) | MIC K. pneumoniae OXA-48, 12.5% MHB ([5]; carbapenem-resistant, 12.5% MHB pH 7.4, 16–20 h at 37 °C): 4/4 μg/mL | MIC K. pneumoniae OXA-48, full MHB ([5]; carbapenem-resistant, full MHB pH 7.4, 16–20 h at 37 °C): 4/4 μg/mL | MIC K. pneumoniae OXA-48 ([5]; 12.5% MH pH 7.4): 4 mg/L (≈ 3.03 µM) | MIC K. pneumoniae OXA-48 ([5]; full MH pH 7.4): 4 mg/L (≈ 3.03 µM) | MIC P. aeruginosa PA14 2P4 (pmrB), 12.5% MHB [6, 17]: 4 mg/L (≈ 3.03 µM) | MIC P. aeruginosa PA14 2P4 (pmrB), full MHB [6, 18]: 32 mg/L (≈ 24.2 µM) | MIC P. aeruginosa PA14 2P4 ([6]; 12.5% MH pH 7.4): 4 mg/L (≈ 3.03 µM) | MIC P. aeruginosa PA14 2P4 ([6]; full MH pH 7.4): 32 mg/L (≈ 24.2 µM) | MIC E. cloacae, 12.5% MHB ([7]; 12.5% MHB pH 7.4, 16–20 h at 37 °C): 2 mg/L (≈ 1.51 µM) | MIC E. cloacae, full MHB ([7]; full MHB pH 7.4, 16–20 h at 37 °C): 4 mg/L (≈ 3.03 µM) | MIC E. cloacae ([7]; 12.5% MH pH 7.4): 2 mg/L (≈ 1.51 µM) | MIC E. cloacae ([7]; full MH pH 7.4): 4 mg/L (≈ 3.03 µM) | MIC P. aeruginosa ZEM9A, full MHB ([8]; clinical isolate, full MHB pH 7.4, 16–20 h at 37 °C): 4 to 8 mg/L | MIC P. aeruginosa ZEM9A ([8]; 12.5% MH pH 7.4): 2 mg/L (≈ 1.51 µM) | MIC P. aeruginosa ZEM9A ([8]; full MH pH 7.4): 4 to 8 mg/L | MIC P. aeruginosa PA14 4.13 (phoQ), 12.5% MHB [9, 17]: 2 mg/L (≈ 1.51 µM) | MIC P. aeruginosa PA14 4.13 (phoQ), full MHB [9, 18]: 4 mg/L (≈ 3.03 µM) | MIC P. aeruginosa PA14 4.13 ([9]; 12.5% MH pH 7.4): 2 mg/L (≈ 1.51 µM) | MIC P. aeruginosa PA14 4.13 ([9]; full MH pH 7.4): 4 mg/L (≈ 3.03 µM) | MIC A. baumannii, 12.5% MHB ([10]; A. baumannii ATCC19606, 12.5% Müller–Hinton medium, 16–20 h at 37 °C): 2 mg/L (≈ 1.51 µM) | MIC A. baumannii, Full MHB ([10]; A. baumannii ATCC19606, full Müller–Hinton medium, 16–20 h at 37 °C): 2 to 4 mg/L | MIC A. baumannii ATCC19606 ([10]; supplement CSV, 12.5% MH pH 7.4): 2 mg/L (≈ 1.51 µM) | MIC K. pneumoniae NCTC418 ([11]; 12.5% MH pH 7.4): 4 mg/L (≈ 3.03 µM) | MIC K. pneumoniae NCTC418 ([11]; full MH pH 7.4): 8 mg/L (≈ 6.05 µM) | MIC E. coli, 12.5% MHB ([12]; E. coli W3110, 12.5% Müller–Hinton medium, 16–20 h at 37 °C, broth microdilution): 2 mg/L (≈ 1.51 µM) | MIC E. coli, Full MHB ([12]; E. coli W3110, full Müller–Hinton medium, 16–20 h at 37 °C, broth microdilution): 4 mg/L (≈ 3.03 µM) | MIC E. coli W3110 ([12]; 12.5% MH pH 7.4): 2 mg/L (≈ 1.51 µM) | MIC E. coli W3110 ([12]; full MH pH 7.4): 4 mg/L (≈ 3.03 µM) | MIC P. aeruginosa PAO1 ([13]; 12.5% MH pH 7.4): 2 mg/L (≈ 1.51 µM) | MIC P. aeruginosa PAO1 ([13]; full MH pH 7.4): 4 mg/L (≈ 3.03 µM) | MIC S. aureus, 12.5% MHB ([14]; S. aureus COL (MRSA), 12.5% Müller–Hinton medium, 16–20 h at 37 °C): 2 mg/L (≈ 1.51 µM) | MIC S. aureus, Full MHB ([14]; S. aureus COL (MRSA), full Müller–Hinton medium, 16–20 h at 37 °C): 16 mg/L (≈ 12.1 µM) | MIC S. aureus COL (MRSA) ([14]; 12.5% MH pH 7.4): 2 mg/L (≈ 1.51 µM) | MIC S. aureus COL (MRSA) ([14]; full MH pH 7.4): 16 mg/L (≈ 12.1 µM) | MIC P. aeruginosa PA14 4.18 (pmrB), 12.5% MHB [15, 17]: 2 mg/L (≈ 1.51 µM) | MIC P. aeruginosa PA14 4.18 (pmrB), full MHB [15, 18]: 16 mg/L (≈ 12.1 µM) | MIC P. aeruginosa PA14 4.18 ([15]; 12.5% MH pH 7.4): 2 mg/L (≈ 1.51 µM) | MIC P. aeruginosa PA14 4.18 ([15]; full MH pH 7.4): 16 mg/L (≈ 12.1 µM)

oncocin (L-oncocin) (peptide)
Kd [16]: 30 µM
